Reference: PubChem BioAssay (NCI)
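Growth conditions: 96-well plates. Treatment: test compound, 48 hours, 5 concentrations. Analysis: linear interpolation between bracketing concentrations; unreached endpoints set to highest concentration. GI50: concentration for 50% inhibition of growth. Definition used: TGI = concentration required for complete inhibition of growth.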

Columns and labels:
Assay in all cases: DTP human tumour cell line panel, 48 h
SW-620 colon = system: SW-620 colon
IGROV1 ovarian = system: IGROV1 ovarian
HT29 colon = system: HT29 colon
NCI-H522 lung = system: NCI-H522 lung
NCI-H226 lung = system: NCI-H226 lung
OVCAR-4 ovarian = system: OVCAR-4 ovarian
UACC-62 melanoma = system: UACC-62 melanoma
NCI/ADR-RES ovarian = system: NCI/ADR-RES ovarian
CCRF-CEM leukemia = system: CCRF-CEM leukemia
CAKI-1 renal = system: CAKI-1 renal

Compound	GI50 (SW-620 colon)	TGI (SW-620 colon)	GI50 (IGROV1 ovarian)	TGI (IGROV1 ovarian)	GI50 (HT29 colon)	TGI (HT29 colon)	GI50 (NCI-H522 lung)	TGI (NCI-H522 lung)	GI50 (NCI-H226 lung)	TGI (NCI-H226 lung)	GI50 (OVCAR-4 ovarian)	TGI (OVCAR-4 ovarian)	GI50 (UACC-62 melanoma)	TGI (UACC-62 melanoma)	GI50 (NCI/ADR-RES ovarian)	TGI (NCI/ADR-RES ovarian)	GI50 (CCRF-CEM leukemia)	TGI (CCRF-CEM leukemia)	GI50 (CAKI-1 renal)	TGI (CAKI-1 renal)
CCN(Cc1ccc(F)cc1)c1cc(Cl)c(CO)c(Cl)c1	13.7 µM	30.4 µM	4.08 µM	17.9 µM	16.2 µM	33.2 µM	10.8 µM	25.7 µM	3.69 µM	17.1 µM	10.7 µM	22.5 µM	4.98 µM	17.9 µM	13.7 µM	31.4 µM	16.8 µM	47.7 µM	13.5 µM	32.1 µM
Cc1csc(-c2nnc(Nc3ccc(Oc4ncccc4-c4ccnc(N)n4)cc3)c3ccccc23)c1	0.651 µM	> 100 µM	3.35 µM	> 100 µM	0.558 µM	> 100 µM	5.31 µM	> 69.1 µM	> 63.8 µM	> 100 µM	6.59 µM	> 100 µM	0.767 µM	> 100 µM	0.355 µM	> 100 µM	0.234 µM	> 100 µM	–	> 100 µM
COc1ccc2nc(NC(=O)CSc3nnc4n3S(=O)(=O)c3ccccc3N4c3ccccc3)sc2c1	> 100 µM	> 100 µM	5.47 µM	55.1 µM	> 100 µM	> 100 µM	30.4 µM	> 100 µM	> 100 µM	> 100 µM	> 100 µM	> 100 µM	48.5 µM	> 100 µM	> 100 µM	> 100 µM	> 100 µM	> 100 µM	> 100 µM	> 100 µM
CCN(C(=O)N1CCN(c2cc3c(cc2F)c(=O)c(C(=O)O)cn3C2CC2)CC1)c1nc(-c2ccc(Cl)cc2)cs1	1.83 µM	> 100 µM	0.538 µM	1.79 µM	1.06 µM	> 100 µM	1.8 µM	> 26.5 µM	1.79 µM	5.2 µM	1.48 µM	> 57.1 µM	1.13 µM	3.55 µM	2.07 µM	13.7 µM	2.45 µM	> 100 µM	2.17 µM	11.4 µM
CCN1C(=O)N(c2ccccc2)C2NC(=S)N(/N=C/C=C/c3ccccc3OC)C21 (configuration not stated)	0.125 µM	> 100 µM	0.136 µM	10.8 µM	0.111 µM	> 100 µM	0.0409 µM	0.189 µM	0.3 µM	> 40 µM	0.263 µM	> 67 µM	0.0698 µM	> 100 µM	0.0782 µM	> 72.4 µM	0.111 µM	> 38.5 µM	0.0704 µM	> 60.9 µM
COC[C@H]1Cn2cc(-c3nc(Nc4ccnn4C)ncc3C)nc2C(=O)N1Cc1ccc(F)c(F)c1	0.156 µM	> 100 µM	0.315 µM	> 100 µM	0.0436 µM	> 100 µM	–	> 100 µM	25.8 µM	> 100 µM	17.8 µM	> 100 µM	0.0228 µM	> 100 µM	> 100 µM	> 100 µM	29.3 µM	> 100 µM	0.795 µM	> 100 µM
COc1ccc(-c2cn[nH]c2-c2cc(OC)c(OC)c(OC)c2)cc1	0.0316 µM	26.7 µM	0.0363 µM	19.9 µM	0.0258 µM	0.336 µM	0.0101 µM	0.0385 µM	0.111 µM	20.6 µM	0.511 µM	46.9 µM	0.0339 µM	19.5 µM	0.0305 µM	40.2 µM	0.0353 µM	> 42.6 µM	0.0187 µM	18.2 µM
O=[N+]([O-])c1ccc(Cl)cc1N/N=C/c1ccnc2ccccc12	–	> 100 µM	–	> 100 µM	–	> 100 µM	–	> 100 µM	–	> 100 µM	–	> 100 µM	–	> 100 µM	–	> 100 µM	–	> 100 µM	–	> 100 µM
COc1ccc(CCN=C2NC(=O)/C(=C/c3ccc4ncccc4c3)S2)cc1	> 25 µM	> 25 µM	> 25 µM	> 25 µM	> 25 µM	> 25 µM	> 25 µM	> 25 µM	> 25 µM	> 25 µM	> 25 µM	> 25 µM	> 25 µM	> 25 µM	> 25 µM	> 25 µM	> 25 µM	> 25 µM	> 21.2 µM	> 25 µM
Nc1n[nH]c2cc(F)c([C@@H]3Nc4ccc5[nH]ncc5c4[C@H]4C5CCC(C5)[C@@H]34)cc12 (some centres not stated)	0.188 µM	> 25 µM	0.218 µM	15.6 µM	0.182 µM	> 50 µM	0.106 µM	2.08 µM	0.192 µM	3.38 µM	0.327 µM	> 50 µM	0.218 µM	10 µM	0.159 µM	0.746 µM	0.176 µM	> 50 µM	0.132 µM	7.43 µM
Nc1ccc(C2=NNC(=O)Cc3cc4c(cc32)OCCO4)cc1Cl	2.01 µM	> 50 µM	4.54 µM	> 50 µM	2.11 µM	> 50 µM	2.02 µM	23.5 µM	8.12 µM	> 50 µM	35.3 µM	> 50 µM	4.42 µM	> 50 µM	1.3 µM	7.32 µM	3.47 µM	> 50 µM	1.99 µM	> 50 µM
COc1cc(/C(C#N)=C/c2nc3c(N4CCOCC4)nc(Cl)nc3n2C)cc(OC)c1OC	< 0.01 µM	> 100 µM	< 0.01 µM	16.6 µM	< 0.01 µM	3.42 µM	< 0.01 µM	2.88 µM	–	3.03 µM	< 0.01 µM	41.1 µM	< 0.01 µM	15.5 µM	< 0.01 µM	5.56 µM	< 0.01 µM	0.668 µM	< 0.01 µM	2.87 µM
